Where a name gives a salt, the structure may show the parent alone. Read-outs that look alike come from different tables or passages of the source.
Assays:
[1] = target: T1, MBP-CDC25B3 recombinant enzyme (Homo sapiens, UniProt P30305); test: In vitro enzymatic assay (fluorescein diphosphate as substrate); format: biochemical; settings: recombinant fused MBP-CDC25B protein, fluorescein diphosphate 30 µM as substrate, concentration response up to 100 µM
T1 construct: made in house
T1 sequence (P30305 1-580): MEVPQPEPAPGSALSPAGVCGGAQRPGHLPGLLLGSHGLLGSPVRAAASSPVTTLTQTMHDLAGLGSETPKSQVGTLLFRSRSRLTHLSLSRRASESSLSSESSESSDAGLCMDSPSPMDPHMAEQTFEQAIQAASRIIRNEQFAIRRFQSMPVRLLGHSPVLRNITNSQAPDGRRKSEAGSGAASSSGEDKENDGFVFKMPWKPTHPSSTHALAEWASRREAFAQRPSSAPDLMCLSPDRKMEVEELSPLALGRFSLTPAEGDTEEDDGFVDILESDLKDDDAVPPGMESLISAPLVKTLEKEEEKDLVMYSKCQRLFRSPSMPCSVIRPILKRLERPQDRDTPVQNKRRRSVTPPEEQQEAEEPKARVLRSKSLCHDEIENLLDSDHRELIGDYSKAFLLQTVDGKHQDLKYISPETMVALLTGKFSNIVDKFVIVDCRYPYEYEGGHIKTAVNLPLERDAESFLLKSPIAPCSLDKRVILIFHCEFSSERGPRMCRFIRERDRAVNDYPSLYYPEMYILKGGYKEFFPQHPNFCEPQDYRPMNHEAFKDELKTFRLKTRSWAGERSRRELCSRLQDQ
Protocol: The activity of the MBP-CDC25B3 recombinant enzyme was monitored using fluorescein diphosphate as the substrate. The assay was performed in 96-well plates in a final volume of 200 µL. The maltose binding protein-CDC25B3 was kept in elution buffer [50mM phosphate pH 7.5, 300 mM NaCl, 500 mM imidazole, 10% glycerol]. It was diluted in assay buffer [30 mM Tris-HCl (pH 8.2), 75 mM NaCl, 0.67 mM EDTA, 0.033% BSA, 1 mM DTT]. The final concentration of CDC25B3 was 75 ng/well. Products were studied in a concentration response up to 100 µM. The reaction was initiated by addition of 30 µM of fluorescein diphosphate followed by immediate measure of fluorescein emission with a Fluoroskan Ascent (Lab Systems; excitation filter: 485 nm, emission filter: 530 nm). The results are expressed as the means of at least two independent experiments with three determinations per tested concentration and per experiment. For each compound, the drug concentration required for 50% inhibition (IC50) was determined from a sigmoidal dose-response curve using GraphPad Prism (GraphPad Software, San Diego, CA).
The compounds of formula (I) were evaluated for in vitro enzymatic activity inhibition on the recombinant fused MBP-CDC25B protein with fluorescein diphosphate as the substrate.

[2] = tested on: HeLa cells; test: Clonogenic assay (cloning inhibition, colony counting after crystal violet staining); format: cell-based; settings: 10 days incubation
Protocol: For cloning inhibition assays, HeLa cells were plated at 100 cells/well in 6-well tissue culture plates with 2.5 mL of medium/well. After 24 h growing at 37 °C in a humidified atmosphere of 5% CO2, the culture medium was replaced by control medium or medium containing inhibitors at increasing concentrations (up to 100 µM) and incubated for 10 days. Cells were then washed with […] phosphate-buffered saline and fixed in 10% formaldehyde for 30 minutes at room temperature. They were carefully rinsed with water, stained with 1 mL crystal violet (2 g in 100 mL ethanol, then 2 mL in 100 mL water) for 10 minutes and finally rinsed with water. The plating efficiency was determined by counting the colonies. The results are expressed as the means of two independent experiments with three determinations per tested concentration. For each compound, the IC50 was determined from a sigmoidal dose-response using GraphPad Prism (GraphPad Software, San Diego, CA).
The effects on cell proliferation were further investigated in a clonogenic assay on HeLa cells. HeLa cells were treated at day 1 with increasing concentration of drugs and then plated for an additional 10-day. After crystal violet staining and colony counting, dose-response curve were drawn and the IC50 values determined.

[3] = Homo sapiens, 240 h, read-out: IC50

Structure (SMILES): COC(=O)C1=C(C)N=c2sc(=Cc3ccc(O)cc3)c(=O)n2C1c1ccc2c(c1)OCO2 (centres unmarked) [(12a), methyl 5-(benzo[1,3]dioxol-5-yl)-2-(4-hydroxybenzylidene)-7-methyl-3-oxo-2,3-dihydro-5H-thiazolo[3,2-a]pyrimidine-6-carboxylate]
- IC50 [1]: 9.2 µM

Structure (SMILES): CCOC(=O)C1=C(C)N=c2sc(=Cc3ccc(OC(C)=O)c(OC(C)=O)c3)c(=O)n2C1c1ccc(OC)c(OC)c1 (centres unmarked) [Compound (5b), ethyl 2-(3,4-diacetoxybenzylidene)-5-(3,4-dimethoxyphenyl)-7-methyl-3-oxo-2,3-dihydro-5H-thiazolo[3,2-a]pyrimidine-6-carboxylate]
- IC50 [1]: 2.9 µM
- IC50 [2, 3]: 3.5 µM

Structure (SMILES): CCOC(=O)C1=C(C)N=c2sc(=Cc3ccc(O)cc3)c(=O)n2C1c1ccc2c(c1)OCO2 (centres unmarked) [(1a), ethyl 5-(benzo[1,3]dioxol-5-yl)-2-(4-hydroxybenzylidene)-7-methyl-3-oxo-2,3-dihydro-5H-thiazolo[3,2-a]pyrimidinium-6-carboxylate mesylate]
- IC50 [1]: 6 µM
- IC50 ([2]; mesylate): 14.8 µM

Structure (SMILES): CCOC(=O)C1=C(C)N=c2sc(=Cc3cc(Br)c(O)c(Br)c3)c(=O)n2C1c1ccc2c(c1)OCO2 (centres unmarked) [Compound 12, ethyl 5-(benzo[1,3]dioxol-5-yl)-2-(3,5-dibromo-4-hydroxybenzylidene)-7-methyl-3-oxo-2,3-dihydro-5H-thiazolo[3,2-a]pyrimidine-6-carboxylate]
- IC50 [1]: 16.7 µM
- IC50 [2, 3]: 9.75 µM

Structure (SMILES): CCOC(=O)C1=C(C)N=c2sc(=Cc3ccc(OC(C)=O)c(OC(C)=O)c3)c(=O)n2C1c1ccc2c(c1)OCO2 (centres unmarked) [Compound (5a), ethyl 2-(3,4-diacetoxybenzylidene)-5-(benzo[1,3]dioxol-5-yl)-7-methyl-3-oxo-2,3-dihydro-5H-thiazolo[3,2-a]pyrimidine-6-carboxylate]
- IC50 [1]: 1.2 µM
- IC50 [2, 3]: 1.8 µM

Structure (SMILES): CCOC(=O)C1=C(C)N=c2sc(=Cc3ccc(O)cc3)c(=O)n2C1c1ccc2c(c1)OCO2 (stereo not drawn) [Compound 1, ethyl 5-(benzo[1,3]dioxol-5-yl)-2-(4-hydroxybenzylidene)-7-methyl-3-oxo-2,3-dihydro-5H-thiazolo[3,2-α]pyrimidine-6-carboxylate]
- IC50 [1]: 13 µM
- IC50 ([2]; Homo sapiens, HeLa, 240 h): 15.9 µM

— patent EP2000140A1, “Use of derivatives of 3-oxo-2,3-dihydro-5H-thiazolo[3,2-a]pyrimidine or of 3-oxo-2,3-dihydro-5H-imidazolo[3,2-a]pyrimidine for the preparation of pharmaceutical compositions intended for the treatment of cancer” (INSTITUT NATIONAL DE LA SANTE ET DE LA RECHERCHE MEDICALE …, priority 2007, dated 2008)
